This passage reports IC50 results from patent US10695334B2, “Heteroaromatic carboxamide derivatives as plasma kallikrein inhibitors” (Boehringer Ingelheim International GmbH, priority 2018, dated 2020).

This assay concerns the target Human PKK (Homo sapiens (Human), UniProt P03952). In words: Inhibition of PKK, endpoint assay (human PKK). The settings on record: substrate H-Pro-Phe-Arg-AMC, 1 h room temperature. The class given is biochemical. As for the experimental part:
Subsequently, PPACK II (Calbiochem) was added as a stop solution to achieve a final concentration of 1 μM and fluorescence was measured using an Envision Reader (PerkinElmer) with the wavelength excitation setting of 355 nm and the wavelength emission setting of 460 nm.

Human PKK, sequence (P03952 391-638): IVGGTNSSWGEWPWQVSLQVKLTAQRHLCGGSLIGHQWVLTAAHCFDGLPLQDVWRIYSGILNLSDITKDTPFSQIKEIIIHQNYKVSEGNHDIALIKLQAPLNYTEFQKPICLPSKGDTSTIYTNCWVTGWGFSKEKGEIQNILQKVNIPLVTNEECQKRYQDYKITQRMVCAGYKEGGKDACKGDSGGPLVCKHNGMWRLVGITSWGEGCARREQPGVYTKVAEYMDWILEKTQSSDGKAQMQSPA
Human PKK, sequence (P03952 20-390 partner): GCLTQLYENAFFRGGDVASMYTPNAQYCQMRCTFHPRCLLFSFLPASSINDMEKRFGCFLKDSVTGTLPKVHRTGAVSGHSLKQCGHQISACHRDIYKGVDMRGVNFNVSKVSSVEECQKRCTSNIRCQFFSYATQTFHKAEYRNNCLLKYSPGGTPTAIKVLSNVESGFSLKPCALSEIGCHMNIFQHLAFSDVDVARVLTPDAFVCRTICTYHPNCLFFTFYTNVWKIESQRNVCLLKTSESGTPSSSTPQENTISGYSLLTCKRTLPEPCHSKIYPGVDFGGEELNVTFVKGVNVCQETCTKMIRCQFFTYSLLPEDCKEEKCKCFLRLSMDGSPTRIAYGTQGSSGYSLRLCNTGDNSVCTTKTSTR

The IC50 is the concentration at which inhibition is half-maximal. A low value points to higher potency. For the compound `Cc1nc(N2CC3CC3C2)ccc1Cn1cc(C(=O)N[C@H]2CCc3c(C)n[nH]c32)cn1` (stereo partly drawn) [Example 2, 1-[(6-{3-Azabicyclo[3.1.0]hexan-3-yl}-2-methylpyridin-3-yl)methyl]-N-[(6S)-3-methyl-1H,4H,5H,6H-cyclopenta[c]pyrazol-6-yl]-1H-pyrazole-4-carboxamide], the 50% inhibitory concentration (IC50) is 32 nM. Compound `Cc1nc(N2CC3C(C2)C3(F)F)ccc1Cn1cc(C(=O)N[C@H]2CCc3c(C)n[nH]c32)cn1` (stereo partly drawn) [Example 4, 1-[(6-{6,6-Difluoro-3-azabicyclo[3.1.0]hexan-3-yl}-2-methylpyridin-3-yl)methyl]-N-[(6S)-3-methyl-1H,4H,5H,6H-cyclopenta[c]pyrazol-6-yl]-1H-pyrazole-4-carboxamide] registered an IC50 of 9 nM. `Cc1nc(N2CC3CC3C2)ccc1Cn1ncc(C(=O)N[C@@H]2CCc3c(C)n[nH]c32)n1` (stereo partly drawn) [Example 10, 2-[(6-{3-Azabicyclo[3.1.0]hexan-3-yl}-2-methylpyridin-3-yl)methyl]-N-[(6R)-3-methyl-1H,4H,5H,6H-cyclopenta[c]pyrazol-6-yl]-2H-1,2,3-triazole-4-carboxamide]: half-maximal inhibition (IC50) required 26 nM. The compound `Cc1nc(N2CC3C(C2)C3(F)F)ccc1Cn1cc(C(=O)N[C@@H]2CCc3c(C)n[nH]c32)c(C)n1` (stereo partly drawn) [Example 18, 1-[(6-{6,6-Difluoro-3-azabicyclo[3.1.0]hexan-3-yl}-2-methylpyridin-3-yl)methyl]-3-methyl-3-methyl-N-[(6R)-3-methyl-1H,4H,5H,6H-cyclopenta[c]pyrazol-6-yl]-1H-pyrazole-4-carboxamide] returned an IC50 of 0.9 nM.

Consider `Cc1nc(N2CC3(CC3)C2)ccc1Cn1cc(C(=O)N[C@@H]2CCc3c(C)n[nH]c32)c(C)n1` [Example 24, 1-[(6-{5-Azaspiro[2.3]hexan-5-yl}-2-methylpyridin-3-yl)methyl]-3-methyl-N-[(6R)-3-methyl1H,4H,5H,6H-cyclopenta[c]pyrazol-6-yl]-1H-pyrazole-4-carboxamide], for which half-maximal inhibition (IC50) was put at 2 nM. In turn, `COCc1nn(Cc2cnc(N3CC4C(C3)C4(F)F)nc2C)cc1C(=O)N[C@@H]1CCc2c(C)n[nH]c21` (stereo partly drawn) [Example 26, 1-[(2-{6,6-Difluoro-3-azabicyclo[3.1.0]hexan-3-yl}-4-methylpyrimidin-5-yl)methyl]-3-(methoxy-methyl)-N-[(6R)-3-methyl-1H,4H,5H,6H-cyclo-penta[c]pyrazol-6-yl]-1H-pyrazole-4-carboxamide] returned a half-inhibitory concentration (IC50) of 3 nM.

Consider `Cc1nc(N2CC3C(C2)C3(F)F)ncc1Cn1cc(C(=O)N[C@@H]2CCc3c(C)n[nH]c32)c(C)n1` (stereo partly drawn) [Example 27, 1-[(2-{6,6-Difluoro-3-azabicyclo[3.1.0]hexan-3-yl}-4-methylpyrimidin-5-yl)methyl]-3-methyl-N-[(6R)-3-methyl-1H,4H,5H,6H-cyclopenta[c]pyrazol-6-yl]-1H-pyrazole-4-carboxamide], for which the IC50 came out at 3 nM.

For `COCc1nn(Cc2cnc(N3CC4CC4C3)nc2C)cc1C(=O)N[C@@H]1CCc2c(C)n[nH]c21` (stereo partly drawn) [Example 28, 1-[(2-{3-Azabicyclo[3.1.0]hexan-3-yl}-4-methyl-pyrimidin-5-yl)methyl]-3-(methoxymethyl)-N-[(6R)-3-methyl-1H,4H,5H,6H-cyclopenta[c]pyrazol-6-yl]-1H-pyrazole-4-carboxamide], the IC50 was 4 nM. In the case of `Cc1nc(N2CC3(CC3)C2)ncc1Cn1cc(C(=O)N[C@@H]2CCc3c(C)n[nH]c32)c(C)n1` [Example 29, 1-[(2-{5-Azaspiro[2.3]hexan-5-yl}-4-methyl-pyrimidin-5-yl)methyl]-3-methyl-N-[(6R)-3-methyl-1H,4H,5H,6H-cyclpenta[c]pyrazol-6-yl]-1H-pyrazole-4-carboxamide], inhibition was half-maximal at 7 nM (IC50).

Consider `Cc1nc(N2CC3(CC3)C2)ncc1Cn1cc(C(=O)N[C@@H]2CCc3c(C)n[nH]c32)cn1` [Example 30, 1-[(2-{5-Azaspiro[2.3]hexan-5-yl}-4-methyl-pyrimidin-5-yl)methyl]-N-[(6R)-3-methyl-1H,4H,5H,6H-cyclopenta[c]pyrazol-6-yl]-1H-pyrazole-4-carboxamide], for which half-maximal inhibition (IC50) was put at 8 nM. As for `COCc1nn(Cc2cnc(N3CC4(CC4)C3)nc2C)cc1C(=O)N[C@@H]1CCc2c(C)n[nH]c21` [Example 31, 1-[(2-{5-Azaspiro[2.3]hexan-5-yl}-4-methyl-pyrimidin-5-yl)methyl]-3-(methoxymethyl)-N-[(6R)-3-methyl-1H,4H,5H,6H-cyclopenta[c]pyrazol-6-yl]-1H-pyrazole-4-carboxamide], the half-inhibitory concentration (IC50) is 10 nM. Regarding `Cc1nc(N2CC3CC3C2)ccc1Cn1cc(C(=O)N[C@@H]2CCc3c(C)n[nH]c32)c(-c2cnn(C)c2)n1` (stereo partly drawn) [Example 32, 1-[(6-{3-Azabicyclo[3.1.0]hexan-3-yl}-2-methyl-pyridin-3-yl)methyl]-1′-methyl-N-[(6R)-3-methyl-1H,4H,5H,6H-cyclopenta[c]pyrazol-6-yl]-1H,1′H-[3,4′-bipyrazole]-4-carboxamide], the 50% inhibitory concentration (IC50) came out at 2 nM. Compound `Cc1nc(N2CCCCC2)ccc1Cn1cc(C(=O)N[C@@H]2CCc3c2n[nH]c3C)cn1` [Example 34, N-[(6R)-3-Methyl-2H,4H,5H,6H-cyclopenta[c]pyrazol-6-yl]-1-{[2-methyl-6-(piperidin-1-yl)pyridin-3-yl]methyl}-1H-pyrazole-4-carboxamide] came in with an IC50 of 11 nM.

`Cc1nc(N2C[C@@H]3[C@@H](CO)[C@@H]3C2)ccc1Cn1cc(C(=O)N[C@@H]2CCc3c2n[nH]c3C)cn1` [Example 38, 1-({6-[(1R,5S,6R)-6-(Hydroxymethyl)-3-azabicyclo[3.1.0]hexan-3-yl]-2-methylpyridin-3-yl}methyl)-N-[(6R)-3-methyl-2H,4H,5H,6H-cyclopenta[c]pyrazol-6-yl]-1H-pyrazole-4-carboxamide] had an IC50 of 26 nM. Compound `Cc1nc(N2CC3CC(C2)C3O)ccc1Cn1cc(C(=O)N[C@@H]2CCc3c2n[nH]c3C)cn1` (stereo partly drawn) [Example 39, 1-[(6-{6-Hydroxy-3-azabicyclo[3.1.1]heptan-3-yl]-2-methylpyridin-3-yl)methyl]-N-[(6R)-3-methyl-2H,4H,5H,6H-cyclopenta[c]pyrazol-6-yl]-1H-pyrazole-4-carboxamide] displayed a concentration for half-maximal inhibition (IC50) of 9 nM. `Cc1nc(N2CC3(CCOC3)C2)ccc1Cn1cc(C(=O)N[C@@H]2CCc3c2n[nH]c3C)cn1` [Example 40, N-[(6R)-3-Methyl-2H,4H,5H,6H-cyclopenta[c]pyrazol-6-yl]-1-[(2-methyl-6-{6-oxa-2-azaspiro[3.4]octan-2-yl]pyridin-3-yl)methyl]-1H-pyrazole-4-carboxamide] yielded an IC50 of 137 nM. In the case of `Cc1nc(N2CC(C)(C#N)C2)ccc1Cn1cc(C(=O)N[C@@H]2CCc3c2n[nH]c3C)cn1` [Example 41, 1-{[6-(3-Cyano-3-methylazetidin-1-yl)-2-methylpyridin-3-yl]methyl}-N-[(6R)-3-methyl-2H,4H,5H,6H-cyclopenta[c]pyrazol-6-yl]-1H-pyrazole-4-carboxamide], the IC50 was 13 nM. The compound `CCC1(C)CN(c2ccc(Cn3cc(C(=O)N[C@@H]4CCc5c4n[nH]c5C)cn3)c(C)n2)C1` [Example 42, 1-{[6-(3-Ethyl-3-methylazetidin-1-yl)-2-methylpyridin-3-yl]methyl}-N-[(6R)-3-methyl-2H,4H,5H,6H-cyclopenta[c]pyrazol-6-yl]-1H-pyrazole-4-carboxamide] showed an IC50 of 6 nM.

In turn, `Cc1nc(N2CC3COCC(C3)C2)ccc1Cn1cc(C(=O)N[C@@H]2CCc3c2n[nH]c3C)cn1` [Example 43, N-[(6R)-3-Methyl-2H,4H,5H,6H-cyclopenta[c]pyrazol-6-yl]-1-[(2-methyl-6-{3-oxa-7-azabicyclo[3.3.1]nonan-7-yl]pyridin-3-yl)methyl]-1H-pyrazole-4-carboxamide] had an IC50 of 23 nM. Next, `COC1(C)CN(c2ccc(Cn3cc(C(=O)N[C@@H]4CCc5c4n[nH]c5C)cn3)c(C)n2)C1` [Example 44, 1-{[6-(3-Methoxy-3-methylazetidin-1-yl)-2-methylpyridin-3-yl]methyl}-N-[(6R)-3-methyl-2H,4H,5H,6H-cyclopenta[c]pyrazol-6-yl]-1H-pyrazole-4-carboxamide]: 20 nM. As to `Cc1nc(N2CC3CC2C3)ccc1Cn1cc(C(=O)N[C@@H]2CCc3c2n[nH]c3C)cn1` [Example 49, 1-[(6-{2-Azabicyclo[2.1.1]hexan-2-yl}-2-methylpyridin-3-yl)methyl]-N-[(6R)-3-methyl-2H,4H,5H,6H-cyclopenta[c]pyrazol-6-yl]-1H-pyrazole-4-carboxamide], the midpoint of inhibition, the IC50, lay at 42 nM. Take `Cc1nc(N2C[C@@H]3CNC(=O)[C@@H]3C2)ccc1Cn1cc(C(=O)N[C@@H]2CCc3c2n[nH]c3C)cn1` [Example 50, 1-({6-[(3aS,6aS)-4-Oxo-octahydropyrrolo[3,4-c]pyrrol-2-yl]-2-methylpyridin-3-yl}methyl)-N-[(6R)-3-methyl-2H,4H,5H,6H-cyclopenta[c]pyrazol-6-yl]-1H-pyrazole-4-carboxamide]: half-maximal inhibition (IC50) required 8 nM. `Cc1nc(N2CC3(C2)CC3(F)F)ccc1Cn1cc(C(=O)N[C@@H]2CCc3c2n[nH]c3C)cn1` [Example 51, 1-[(6-{1,1-Difluoro-5-azaspiro[2.3]hexan-5-yl}-2-methylpyridin-3-yl)methyl]-N-[(6R)-3-methyl-2H,4H,5H,6H-cyclopenta[c]pyrazol-6-yl]-1H-pyrazole-4-carboxamide] yielded an IC50 of 25 nM. The compound `COC1C2CC1CN(c1ccc(Cn3cc(C(=O)N[C@@H]4CCc5c4n[nH]c5C)cn3)c(C)n1)C2` (stereo partly drawn) [Example 53, 1-[(6-{6-methoxy-3-azabicyclo[3.1.1]heptan-3-yl}-2-methylpyridin-3-yl)methyI]-N-[(6R)-3-methyl-2H,4H,5H,6H-cyclopenta[c]pyrazol-6-yl]-1H-pyrazole-4-carboxamide] returned an IC50 of 9 nM. On to `Cc1nc(N2CC(CO)C2)ccc1Cn1cc(C(=O)N[C@@H]2CCc3c2n[nH]c3C)cn1` [Example 56, 1-({6-[3-(Hydroxymethyl)azetidin-1-yl]-2-methylpyridin-3-yl}methyl)-N-[(6R)-3-methyl-2H,4H,5H,6H-cyclopenta[c]pyrazol-6-yl]-1H-pyrazole-4-carboxamide], for which the IC50 was found to be 56 nM.
